Test results taken from ChEMBL document CHEMBL4715871, “4-Acyl Pyrroles as Dual BET-BRD7/9 Bromodomain Inhibitors Address BETi Insensitive Human Cancer Cell Lines” (J Med Chem, 2020).
Calls of active or inactive are those of the source. The rule behind the calls is not given here.

Tests used:
HL-60 = test: Growth inhibition of human HL60 cells after 72 hrs by CellTiter 96S AQeous non-radioactive cell proliferation assay; format: functional
[1] = molecular target: T1, Bromodomain-containing protein 9 (Homo sapiens, UniProt Q9H8M2); test: Binding affinity to human partial length BRD9 (R130 to V259 residues) by bromoKdELECT Discover assay
T1 sequence (Q9H8M2 whole entry): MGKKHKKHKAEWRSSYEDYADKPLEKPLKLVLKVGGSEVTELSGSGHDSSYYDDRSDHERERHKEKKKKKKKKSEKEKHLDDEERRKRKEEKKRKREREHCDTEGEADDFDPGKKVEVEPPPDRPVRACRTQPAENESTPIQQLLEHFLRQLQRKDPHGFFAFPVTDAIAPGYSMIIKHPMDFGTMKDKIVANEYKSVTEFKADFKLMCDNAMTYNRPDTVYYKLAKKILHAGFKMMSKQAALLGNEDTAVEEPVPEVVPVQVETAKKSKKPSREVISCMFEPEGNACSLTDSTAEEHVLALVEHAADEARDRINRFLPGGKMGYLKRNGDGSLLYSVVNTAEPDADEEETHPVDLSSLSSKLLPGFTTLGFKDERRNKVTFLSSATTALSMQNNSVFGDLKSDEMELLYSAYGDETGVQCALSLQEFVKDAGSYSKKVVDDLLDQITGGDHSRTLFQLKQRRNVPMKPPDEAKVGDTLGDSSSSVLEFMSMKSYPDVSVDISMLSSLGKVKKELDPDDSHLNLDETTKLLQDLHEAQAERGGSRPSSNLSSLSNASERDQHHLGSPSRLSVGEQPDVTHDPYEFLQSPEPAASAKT

MCF7 = test: Growth inhibition of human MCF7 cells after 72 hrs by CellTiter 96S AQeous non-radioactive cell proliferation assay; format: functional
SK-MEL-5 [2] = test: Growth inhibition of human SK-MEL-5 cells after 72 hrs by CellTiter 96S AQeous non-radioactive cell proliferation assay; format: functional
[3] = molecular target: T2, Bromodomain-containing protein 4 (Homo sapiens, UniProt O60885); test: Binding affinity to human BRD4 BD1 (N44 to E168 aa residues) by bromoKdELECT Discover assay
SNB-75 = test: Growth inhibition of human SNB-75 cells after 72 hrs by CellTiter 96S AQeous non-radioactive cell proliferation assay; format: functional
LOX IMVI = test: Cytotoxicity against human LOX-IMVI cells after 72 hrs by CellTiter 96S AQeous non-radioactive cell proliferation assay; format: functional; details: read-out: LC50 (the source's name)
[4] = Cytotoxicity against human A498 cells after 72 hrs by CellTiter 96S AQeous non-radioactive cell proliferation assay; format: functional; details: read-out: LC50 (the source's name)
[5] = molecular target: T2, Bromodomain-containing protein 4; test: Binding affinity to BRD4 BD1 (unknown origin) at 25 degree C by ITC analysis
UACC-62 = test: Growth inhibition of human UACC-62 cells after 72 hrs by CellTiter 96S AQeous non-radioactive cell proliferation assay; format: functional
NCI-H522 = test: Growth inhibition of human NCI-H522 cells after 72 hrs by CellTiter 96S AQeous non-radioactive cell proliferation assay; format: functional
SK-MEL-5 [6] = test: Cytotoxicity against human SK-MEL-5 cells after 72 hrs by CellTiter 96S AQeous non-radioactive cell proliferation assay; format: functional; details: read-out: LC50 (the source's name)
[7] = molecular target: T2, Bromodomain-containing protein 4; test: Binding affinity to BRD4 BD1 (unknown origin) at 37 degree C by ITC analysis
[8] = molecular target: T2, Bromodomain-containing protein 4; test: Binding affinity to BRD4 BD1 (unknown origin) at 15 degree C by ITC analysis
Homo sapiens [9] = species: Homo sapiens; test: Selectivity index, ratio of Kd for BRD7 (unknown origin) to BRD4 BD1 (unknown origin) by bromoKdELECT Discover assay
Homo sapiens [10] = species: Homo sapiens; test: Selectivity index, ratio of Kd for BRPF1B (unknown origin) to BRD4 BD1 (unknown origin) by bromoKdELECT Discover assay
Homo sapiens [11] = species: Homo sapiens; test: Selectivity index, ratio of Kd for BRD9 (unknown origin) to BRD4 BD1 (unknown origin) by bromoKdELECT Discover assay
[12] = molecular target: T2, Bromodomain-containing protein 4; test: Binding affinity to human BRD4 BD1 (N44 to E168 aa residues) at 10 uM by bromoKdELECT Discover assay

| Structure (SMILES) | GI50 (HL-60; Homo sapiens, HL-60) | GI50 (MCF7; Homo sapiens, MCF7) | GI50 (SK-MEL-5 [2]; Homo sapiens, SK-MEL-5) | Kd [5] | further results |
| --- | --- | --- | --- | --- | --- |
| CCc1c(C(=O)Nc2cc(S(=O)(=O)N(CC)CC)ccc2O)[nH]c(C)c1C(C)=O | 17 µM | – | – | – | – |
| CCc1c(C(=O)NCc2c(O)ccc3cccc(O)c23)[nH]c(C)c1C(C)=O | 1.3 µM | 4.2 µM | 4.2 µM | – | Kd ([1]; read-out: Kd): 2.9 µM; Kd [3]: > 4 µM |
| COc1ccc(S(=O)(=O)N2CCCCC2)cc1NC(=O)c1[nH]c(C)c2c1CCCCC2=O | 0.491 µM | 4.06 µM | 6.79 µM | 0.05 µM | GI50 (SNB-75): 0.141 µM; CC50 (LOX IMVI): 8.17 µM; CC50 [4]: 19.7 µM; GI50 (UACC-62): 0.355 µM; GI50 (NCI-H522): 0.372 µM; CC50 (SK-MEL-5 [6]): 12.2 µM |
| CCN(CC)S(=O)(=O)c1ccc(O)c(NC(=O)c2[nH]c(C)c3c2CCCCC3=O)c1 | > 40 µM | > 40 µM | > 80 µM | 0.07 µM | Kd [7]: 0.17 µM; Kd [8]: < 0.01 µM |
| COc1ccc(S(=O)(=O)N2CCOCC2)cc1NC(=O)c1[nH]c(C)c2c1CCCCC2=O | 0.17 µM | 7.67 µM | 6.8 µM | 0.08 µM | Ratio (Homo sapiens [9]): 1.4; Ratio (Homo sapiens [10]): 8.7; Ratio (Homo sapiens [11]): 1.1 |
| CCC(=O)N1CCOc2c(cc(-c3ccc(OC)c(OC)c3)cc2OC[C@H]2CCCN(C)C2)C1 | > 50 µM | > 50 µM | > 50 µM | – | Kd [1]: Not Active |
| COc1ccc(S(=O)(=O)N2CCCCCC2)cc1NC(=O)c1[nH]c(C)c2c1CCCCC2=O | 0.565 µM | 3 µM | 6.85 µM | 0.18 µM | – |
| COc1ccc(S(=O)(=O)N2CCN(C)CC2)cc1NC(=O)c1[nH]c(C)c2c1CCCCC2=O | 2.08 µM | > 25 µM | > 20 µM | 0.42 µM | – |
| COc1ccc(S(=O)(=O)N2CCCCC2)cc1NC(=O)c1c2c(c(C)n1C)C(=O)CCCC2 | > 10 µM | > 10 µM | > 10 µM | – | Activity [12]: inactive |
| Cc1sc2c(c1C)C(c1ccc(Cl)cc1)=N[C@@H](CC(=O)OC(C)(C)C)c1nnc(C)n1-2 | – | – | – | – | GI50 (MCF7): > 50 µM; GI50 (SK-MEL-5 [2]): > 40 µM; GI50 (HL-60): 0.021 µM |
| CC(=O)c1cc(-c2cc(C(=O)NC3CC3)ccc2C)c2ncccn12 | 1.33 µM | 4.49 µM | 2.77 µM | – | Kd [1]: Not Active |
| Cc1cc(=O)n(C)c2cc(N3C(=O)CC[C@H](NS(=O)(=O)CC(C)C)[C@H]3c3ccc(Cl)cc3)ccc12 | 5.03 µM | – | – | – | – |
| CCN(CC)S(=O)(=O)c1ccc(OC)c(NC(=O)c2[nH]c(C)c3c2CCCCC3=O)c1 | 1.36 µM | 6.84 µM | 16.3 µM | 0.14 µM | – |
| COc1ccc(S(=O)(=O)N2CC3(COC3)C2)cc1NC(=O)c1[nH]c(C)c2c1CCCCC2=O | 0.821 µM | 5.76 µM | 20.8 µM | 0.26 µM | – |
